These results are taken from patent US6465450B2, “Vanadium (IV) complexes containing catecholate ligand and having spermicidal activity” (Parker Hughes Institute, priority 1999, dated 2002).

The test system of series [1] is human sperm. The experiment in a line: Sperm immobilization assay (SIA), 3 h incubation, motility by CASA. It counts as cell-based. The note with it: for EC50: motile fractions of human sperm incubated 3 h with increasing concentrations, 37° C., read-out: EC50 (concentration of compound required for 50% sperm motility loss). The protocol:
Sperm Immobilization Assay (SIA): To evaluate the spermicidal effects of complexes 1-4 a highly motile fraction of pooled donor sperm(n=5) was prepared by discontinuous (90-45%) Percoll gradient (Conception Technologies, San Diego, Calif.) centrifugation and the “swim-up” method as described previously (Aitken et al., 1989, Biol. Reprod. 40:183-197). All donor specimens were obtained after informed consent and in compliance with the guidelines of the Hughes Institutional Review Board. Motile sperm (≧10×10^6/ml) were suspended in 1 ml of Biggers, Whitten, and Whittingam's medium (BWW) containing 0.3% BSA (fraction V; Sigma Chemical Co., St. Louis, Mo.) in the presence and absence of serial 2-fold dilutions of test substance (250 μM -1.9 μM) in 0.25% dimethyl sulfoxide (DMSO). For each experiment, fresh stock solutions (100 mM) of vanadium compounds were prepared in DMSO. A corresponding volume of DMSO […] was added to control sperm suspension. After 3hours of incubation at 37° C., the percentage of motile sperm was evaluated by computer-assisted sperm motion analysis (CASA) as described previously (Aitken et al., 1989, Supra). The percentages of motilities were compared with those of sham-treated control suspensions of motile sperm. The spermicidal activity of test compounds was expressed as the EC50 values (the final concentration of the compound in medium that decreases the proportion of motile sperm by 50%).
(§1) Sperm Kinematic Parameters: For CASA, 4 μl each of sperm suspension was loaded into two 20 μm Microcell chambers placed onto a counting chamber at 37° C. At least 5-8 fieldsper chamber were scanned for analysis using a Hamilton Thorne Integrated Visual Optical System (IVOS) version 10 instrument (Hamilton Thorne Research Inc., Danvers, Mass.). Each field was recorded for 30 seconds. The Hamilton Thorne computer calibrations were set at 30 frames at a frame rate of 30 images/seconds. Other settings were as follows: minimum contrast 8; minimum size 6; low-size gate, 1.0; high-size gate, 2.9; low-intensity gate, 0.6; high-intensity gate, 1.4; phase-contrast illumination; low path velocity at 10 μm/seconds and threshold straightness at 80%; magnification factor, 1.95. The performance of the analyzer was periodically checked using the playback function.
The attributes of sperm kinematic parameters evaluated included numbers of motile (MOT) and progressively (PRG) motile sperm; curvilinear velocity (VCL; a measure of the total distance traveled by a given sperm during the acquisition divided by the time elapsed); average path velocity (VAP; the spatially averaged path that eliminates the wobble of the sperm head), straight-line velocity (VSL; the straight-line distance from beginning to end of track divided by time taken), beat-cross frequency (BCF; frequency of lateral head displacement), (ALH; the mean width of sperm head oscillation), and the derivatives, straightness (STR=VSL divided by VAP×100), linearity (LIN=VSL divided by VCL×100, departure of sperm track from a straight line). Data from each individual cell track were recorded and analyzed. At least 200 sperm were analyzed for each aliquot sampled.
A non-linear regression analysis was used to find the EC50 and T1/2 values (the concentration of the compound, and the time required for 50% sperm motility loss, respectively) from the concentration effect curves.

Series [2] deals with human sperm. Kind of series: Time course of sperm immobilization by CASA. It counts as cell-based. The following applies: motile sperm incubated of each complex (footnote); motility by CASA at timed intervals. The procedure:
[…] At timed intervals (every 5 and 10 minutes) aliquots (4μl) were transferred to two 20 μm Microcell (Conception Technologies) chambers, and sperm motility was assessed by CASA.
as §1, with “function. […]” for “function.”

Series [3] is described as follows: Stability of the complexes as solids or in solution (cyclic voltammetry and UV-vis spectroscopy). The protocol:
UV/Vis Spectra: A UV/vis polarizer attachment was used for the polarization experiments. UV-vis spectra were recorded in a quartz cell or cuvette on a Beckman Model DU 7400 spectrophotometer and the spectral bands were registered in the 200-800 nm range.
Electrochemical Measurements: Electrochemical measurements were performed on a Bioanalytical Systems B/W 100b electrochemical analyzer with internal resistance (IR) compensation. The cyclic voltammograms taken in acetonitrile were obtained in a 0.1 M Bu4NPF6 (TABP) electrolyte solution with a 0.1 M Ag/AgNO3 reference electrode, a Platinum Disc working electrode, and a platinum wire auxiliary electrode. Solutions were purged with nitrogen: and scanned at 200 mV/s. Aqueous cyclic voltammograms were taken in a standard PBS solution, using a Ag/AgCl reference electrode, a glassy carbon working electrode, and a platinum wire auxiliary electrode. Solutions were purged with nitrogen and scanned at 200 mV/s. All potentials were referenced to the ferrocene-ferrocinium couple (E1/2=0.185 V vs Ag/AgCl in PBS).

Where two headings read alike, the source gives them in different places.

On to “Vanadocene mono-tertbutyl catecholate [Cp2V(mbcat) (3)]”, for which, in the series with human sperm [1], the EC50 came to 100 nM. In the series with human sperm [2], the “T1/2 (time required for 50% sperm motility loss)” value was 5.4 min.

Consider `[O-]c1c([O-])c(Cl)c(Cl)c(Cl)c1Cl.[V+2].c1cc[cH-]c1.c1cc[cH-]c1` [Cp2V(catCl4) (1), Vanadocene tetrachloro catecholate], for which the solubility in water result is “not soluble in water”. The “t1/2 (stability)” value in series [3] (in acetonitrile, air, by cyclic voltammetry and UV-vis spectroscopy) was “about 2 hr”. Moreover, the “spermicidal activity in words” value with human sperm [1] (in the concentration ranges examined) is reported as “no spermacidal activity”. Moreover, the EC50 with human sperm [1] is above 250000 nM.

Take `CC(C)(C)c1cc([O-])c([O-])c(C(C)(C)C)c1.[V+4].c1cc[cH-]c1.c1cc[cH-]c1` [Cp2V(dbcat) (5), Vanadocene 1,3 ditertbutyl catecholate]: the “t1/2 (stability)” value in series [3] is on record as “about 2 min”.

In the case of “Vanadocene 1,3-diisopropyl catecholate [Cp2V(dpcat) (4)]”, the EC50 in the series on human sperm [1] was 290 nM.

As to `[O-]c1ccccc1[O-].[V+2].c1cc[cH-]c1.c1cc[cH-]c1` [Cp2V(cat) (2), Vanadocene catecholate.], the EC50 in the series on human sperm [1] was found to be 2400 nM. Besides, in the series on human sperm [2], the “T1/2 (time required for 50% sperm motility loss)” value was determined as 5.8 min.
